≈ marks a conversion by molar mass, not a printed value. Calls of active or inactive are those of the source. The calls are words filed in the database; no cut-off is given here.
Key:
[1] = target: Hepatocyte growth factor receptor (Homo sapiens, UniProt P08581, N1100Y)
[2] = target: T1, Hepatocyte growth factor receptor (Homo sapiens, UniProt P08581); assay: Inhibition of c-MET overexpressed in human GTL-16 cells assessed as phosphorylation at C-terminal Y1349 after 2 hrs by Western blot analysis; assay type: cell-based
[3] = target: Cytochrome P450 2D6 (Homo sapiens, UniProt P10635); assay: Inhibition of CYP2D6; assay type: ADME
[4] = tested on: Mus musculus; assay: Inhibition of c-Met phosphorylation at Y1365 in human GTL16 cells xenografted in CD1 nu/nu mouse at 10 to 100 mg/kg, po BID measured after 4 hrs by immunostaining assay; assay type: functional, organism-based
[5] = target: T1, Hepatocyte growth factor receptor; assay: Inhibition of recombinant human c-MET phosphorylation at C-terminal Y1234
[6] = target: T1, Hepatocyte growth factor receptor; assay: Inhibition of c-MET overexpressed in human GTL-16 cells assessed as phosphorylation at C-terminal Y1365 after 2 hrs by Western blot analysis; assay type: cell-based
[7] = Tmax in rat at 5 mg/kg, po; assay type: ADME, organism-based; design: dose 5 mg/kg, route oral; settings: in vivo
[8] = Tmax in monkey at 0.5 mg/kg, po; assay type: ADME, organism-based, Macaca mulatta; design: dose 0.5 mg/kg, route oral; settings: rhesus monkey, in vivo
[9] = Cmax in dog at 2 mg/kg, po; assay type: ADME, organism-based, Canis lupus familiaris; design: dose 2 mg/kg, route oral; settings: in vivo
[10] = target: T1, Hepatocyte growth factor receptor; assay: Inhibition of recombinant human c-MET phosphorylation at C-terminal Y1365
[11] = target: T1, Hepatocyte growth factor receptor; assay: Inhibition of recombinant human c-MET phosphorylation at C-terminal Y1230
[12] = tested on: Mus musculus; assay: Inhibition of c-Met phosphorylation at Y1349 in human GTL16 cells xenografted in CD1 nu/nu mouse at 10 to 100 mg/kg, po BID measured after 4 hrs by immunostaining assay; assay type: functional, organism-based
[13] = Tmax in dog at 2 mg/kg, po; assay type: ADME, organism-based, Canis lupus familiaris; design: dose 2 mg/kg, route oral; settings: in vivo
[14] = Oral bioavailability in rat at 5 mg/kg; assay type: ADME, organism-based; settings: in vivo
[15] = target: T1, Hepatocyte growth factor receptor; assay: Inhibition of c-MET overexpressed in human GTL-16 cells assessed as phosphorylation at C-terminal Y1234 after 2 hrs by Western blot analysis; assay type: cell-based
[16] = target: T1, Hepatocyte growth factor receptor; assay: Inhibition of recombinant human c-MET phosphorylation at C-terminal Y1349
[17] = target: Aurora kinase A (Homo sapiens, UniProt O14965); assay: Inhibition of human Aurora A
[18] = target: Vascular endothelial growth factor receptor 3 (Homo sapiens, UniProt P35916); assay: Inhibition of human Flt4
[19] = target: Tyrosine-protein kinase JAK2 (Homo sapiens, UniProt O60674); assay: Inhibition of human JAK2
[20] = tested on: GTL 16; assay: Antitumor activity against human GTL16 cells xenografted in CD1 nu/nu mouse assessed as suppression of tumor growth at 10 to 100 mg/kg, po BID; assay type: functional, organism-based
[21] = AUC (0 to infinity) in mouse at 1 mg/kg, iv; assay type: ADME, organism-based; design: time infinity, dose 1 mg/kg, route intravenous; settings: plasma
[22] = target: Cytochrome P450 2C9 (Homo sapiens, UniProt P11712); assay: Inhibition of CYP2C9; assay type: ADME
[23] = Half life in rat at 2 mg/kg, iv and 5 mg/kg, po; assay type: ADME, organism-based; settings: in vivo
[24] = target: T1, Hepatocyte growth factor receptor; assay: Binding affinity to human recombinant His6-tagged phosphorylated c-Met cytosolic domain
[25] = target: High affinity nerve growth factor receptor (Homo sapiens, UniProt P04629); assay: Inhibition of human TrkA
[26] = tested on: Canis familiaris; assay: AUC (0 to infinity) in dog at 1 mg/kg, iv; assay type: ADME, organism-based, Canis lupus familiaris, Plasma; design: time infinity, dose 1 mg/kg, route intravenous; settings: in vivo
[27] = target: Tyrosine-protein kinase ABL1 (Homo sapiens, UniProt P00519); assay: Inhibition of human Abl
[28] = target: BDNF/NT-3 growth factors receptor (Homo sapiens, UniProt Q16620); assay: Inhibition of human TrkB
[29] = Oral bioavailability in mouse at 2 mg/kg; assay type: ADME, organism-based; settings: in vivo
[30] = Solubility of the compound at pH 7.4; assay type: physicochemical; settings: buffer
[31] = Volume of distribution at steady state in mouse at 1 mg/kg, iv; assay type: ADME, organism-based; design: dose 1 mg/kg, route intravenous; settings: in vivo, read-out: Vdss
[32] = target: T1, Hepatocyte growth factor receptor; assay: Binding affinity to human recombinant His6-tagged unphosphorylated c-Met cytosolic domain
[33] = tested on: Canis familiaris; assay: Oral bioavailability in dog at 2 mg/kg; assay type: ADME, organism-based, Canis lupus familiaris; settings: in vivo
[34] = Plasma clearance in mouse at 1 mg/kg, iv; assay type: ADME, organism-based; design: dose 1 mg/kg, route intravenous
[35] = target: Fibroblast growth factor receptor 2 (Homo sapiens, UniProt P21802); assay: Inhibition of human FGFR2
[36] = AUC (0 to infinity) in monkey at 0.25 mg/kg, iv; assay type: ADME, organism-based, Macaca mulatta; design: time infinity, dose 0.25 mg/kg, route intravenous; settings: rhesus monkey, plasma
[37] = target: Fibroblast growth factor receptor 1 (Homo sapiens, UniProt P11362); assay: Inhibition of human FGFR1
[38] = target: Hepatocyte growth factor receptor (Homo sapiens, UniProt P08581, Y1230H)
[39] = target: Fibroblast growth factor receptor 3 (Homo sapiens, UniProt P22607); assay: Inhibition of human FGFR3
[40] = Cmax in monkey at 0.5 mg/kg, po; assay type: ADME, organism-based, Macaca mulatta; design: dose 0.5 mg/kg, route oral; settings: rhesus monkey, in vivo
[41] = tested on: Mus musculus; assay: Toxicity in human GTL16 cells xenografted CD1 nu/nu mouse assessed as mortality at 10 to 100 mg/kg, po BID; assay type: organism-based; design: dose 10-100 mg/kg, route oral; settings: in vivo
[42] = Plasma clearance in rat at 2 mg/kg, iv and 5 mg/kg, po; assay type: ADME, organism-based
[43] = Volume of distribution at steady state in monkey at 0.25 mg/kg, iv; assay type: ADME, organism-based, Macaca mulatta; design: dose 0.25 mg/kg, route intravenous; settings: rhesus monkey, in vivo, read-out: Vdss
[44] = target: T1, Hepatocyte growth factor receptor; assay: Inhibition of c-MET overexpressed in human GTL-16 cells assessed as phosphorylation at C-terminal Y1235 after 2 hrs by Western blot analysis; assay type: cell-based
[45] = tested on: Mus musculus; assay: Inhibition of c-Met phosphorylation at Y1349 in human GTL16 cells xenografted in po dosed CD1 nu/nu mouse measured 1 hr post dosing by Western blot analysis; settings: CD1, GTL 16, 1 h
[46] = AUC (0 to infinity) in rat at 2 mg/kg, iv; assay type: ADME, organism-based; design: time infinity, dose 2 mg/kg, route intravenous; settings: plasma
[47] = tested on: Mus musculus; assay: Toxicity in human GTL16 cells xenografted CD1 nu/nu mouse assessed as mortality at 10 to 200 mg/kg, po qd; assay type: organism-based; design: dose 10-200 mg/kg, route oral; settings: in vivo
[48] = target: T1, Hepatocyte growth factor receptor; assay: Inhibition of recombinant human c-MET phosphorylation at C-terminal Y1235
[49] = tested on: Mus musculus; assay: Inhibition of Akt phosphorylation at S473 in human GTL16 cells xenografted in CD1 nu/nu mouse at 10 to 100 mg/kg, po BID measured after 4 hrs by immunostaining assay; assay type: functional, organism-based
[50] = target: Platelet-derived growth factor receptor alpha (Homo sapiens, UniProt P16234); assay: Inhibition of human PDGFR-alpha
[51] = target: Hepatocyte growth factor receptor (Homo sapiens, UniProt P08581, Y1235D)
[52] = Antiproliferative activity against human GTL16 cells after 72 hrs; settings: GTL 16, 72 h
[53] = target: Hepatocyte growth factor receptor (Homo sapiens, UniProt P08581, M1250T)
[54] = Plasma clearance in dog at 1 mg/kg, iv; assay type: ADME, organism-based, Canis lupus familiaris; design: dose 1 mg/kg, route intravenous
[55] = tested on: Canis familiaris; assay: AUC (0 to infinity) in dog at 2 mg/kg, po; assay type: ADME, organism-based, Canis lupus familiaris, Plasma; design: time infinity, dose 2 mg/kg, route oral; settings: in vivo

For `CN(C[C@@H]1COCCO1)S(=O)(=O)Nc1ccc2ccc3ncc(-c4cnn(C)c4)cc3c(=O)c2c1` [MK-2461], which IC50 [1] is on record?
Its IC50 is 0.0015 µM.

What about the IC50 [2] of the same compound?
The IC50 was 0.056 µM.

What about the IC50 [3] of the same compound?
Its IC50 is > 100 µM.

And the inhibition [4]?
Its inhibition is “Active”.

What about the IC50 [5] of the same compound?
Its IC50 is 0.9 µM.

What about the IC50 [6] of the same compound?
The IC50 was 0.05 µM.

What about the Tmax [7] of the same compound?
The Tmax was 0.7 h.

What about the Tmax [8] of the same compound?
Its Tmax is 3 h.

What about the Cmax [9] of the same compound?
Its Cmax is 2500 nM.

What about the IC50 [10] of the same compound?
The IC50 was 0.026 µM.

And the IC50 [11]?
The IC50 was 0.9 µM.

And the inhibition [12]?
The inhibition was “Active”.

What about the Tmax [13] of the same compound?
The Tmax was 1.4 h.

And the bioavailability [14]?
The bioavailability was 62%.

And the IC50 [15]?
The IC50 was > 2.5 µM.

And the IC50 [16]?
The IC50 was 0.1 µM.

What about the IC50 [17] of the same compound?
The IC50 was 0.29 µM.

And the IC50 [18]?
The IC50 was 0.078 µM.

What about the IC50 [19] of the same compound?
The IC50 was 0.23 µM.

And the Activity [20]?
The Activity was “Active”.

And the AUC(0-inf) [21]?
The AUC(0-inf) was 0.4 µM·h.

What about the IC50 [22] of the same compound?
Its IC50 is 1.2 µM.

What about the half-life [23] of the same compound?
Its half-life is 0.8 h.

And the Kd [24]?
The Kd was 0.004 µM.

And the IC50 [25]?
The IC50 was 0.046 µM.

And the AUC [26]?
Its AUC is 8.4 µM·h.

What about the IC50 [27] of the same compound?
Its IC50 is 7.8 µM.

What about the IC50 [28] of the same compound?
Its IC50 is 0.061 µM.

What about the bioavailability [29] of the same compound?
Its bioavailability is 75%.

What about the solubility [30] of the same compound?
The solubility was 3 µg/mL (≈ 6.05 µM).

And the Vd [31]?
Its Vd is 3.2 L/kg.

And the Kd [32]?
Its Kd is 0.025 µM.

What about the F [33] of the same compound?
Its F is 13%.

And the clearance [34]?
Its clearance is 83 mL/min/kg.

What about the IC50 [35] of the same compound?
Its IC50 is 0.039 µM.

And the AUC(0-inf) [36]?
The AUC(0-inf) was 1 µM·h.

And the IC50 [37]?
Its IC50 is 0.065 µM.

And the IC50 [38]?
The IC50 was 0.001 µM.

And the IC50 [39]?
The IC50 was 0.05 µM.

What about the Cmax [40] of the same compound?
Its Cmax is 120 nM.

And the Activity [41]?
The Activity was “Non-toxic”.

And the clearance [42]?
The clearance was 9.1 mL/min/kg.

What about the Vd [43] of the same compound?
The Vd was 0.5 L/kg.

What about the IC50 [44] of the same compound?
The IC50 was > 2.5 µM.

What about the IC50 [45] of the same compound?
The IC50 was 1 µM.

What about the AUC(0-inf) [46] of the same compound?
The AUC(0-inf) was 7.6 µM·h.

What about the Activity [47] of the same compound?
Its Activity is “Non-toxic”.

What about the IC50 [48] of the same compound?
Its IC50 is 0.9 µM.

And the inhibition [49]?
The inhibition was “Active”.

What about the IC50 [50] of the same compound?
The IC50 was < 0.1 µM.

What about the IC50 [51] of the same compound?
Its IC50 is 0.0005 µM.

What about the IC50 [52] of the same compound?
The IC50 was 0.44 µM.

What about the IC50 [53] of the same compound?
Its IC50 is 0.0004 µM.

And the clearance [54]?
The clearance was 4.3 mL/min/kg.

And the AUC [55]?
The AUC was 13.7 µM·h.

From ChEMBL document CHEMBL1800066 (J Med Chem, 2011)
